For five compounds, mutagenic call results are on record in PubChem BioAssay AID1259407 (Chemical Carcinogenesis Research Information System (CCRIS), 2018).

Calls of active or inactive are those of the source. The rule behind the calls is not given here.

The series has as its system CCRIS mutagenicity, Ames/micronucleus/aberration tests. Nature of the series: CCRIS mutagenicity studies.
The mark [1] stands for this setting: Test System: MOUSE LYMPHOMA, Strain/Indicator: L5178Y (TK+/TK-), Metabolic Activation: NONE, Method: SUSPENSION/PLATE.
The mark [2] stands for this setting: Test System: MOUSE LYMPHOMA, Strain/Indicator: L5178Y (TK+/TK-), Metabolic Activation: RAT, LIVER, S-9, AROCLOR 1254, Method: SUSPENSION/PLATE.

Consider `O=C1N=NC(=O)C2C=CC=CC12` (stereo not given), for which the mutagenic call reads like this: (Test System: AMES SALMONELLA TYPHIMURIUM, Strain/Indicator: TA98, Metabolic Activation: HAMSTER, LIVER, S-9, AROCLOR 1254, Method: STANDARD PLATE) “inactive; negative”; (Test System: AMES SALMONELLA TYPHIMURIUM, Strain/Indicator: TA98, Metabolic Activation: NONE, Method: STANDARD PLATE) “inactive; negative”; (Test System: AMES SALMONELLA TYPHIMURIUM, Strain/Indicator: TA98, Metabolic Activation: RAT, LIVER, S-9, AROCLOR 1254, Method: STANDARD PLATE) “inactive; negative”; (Test System: AMES SALMONELLA TYPHIMURIUM, Strain/Indicator: TA100, Metabolic Activation: HAMSTER, LIVER, S-9, AROCLOR 1254, Method: STANDARD PLATE) “inactive; negative”; (Test System: AMES SALMONELLA TYPHIMURIUM, Strain/Indicator: TA100, Metabolic Activation: NONE, Method: STANDARD PLATE) “inactive; negative”; (Test System: AMES SALMONELLA TYPHIMURIUM, Strain/Indicator: TA100, Metabolic Activation: RAT, LIVER, S-9, AROCLOR 1254, Method: STANDARD PLATE) “inactive; negative”. For the same compound, the mutagenic call was “inactive; negative” (Test System: AMES SALMONELLA TYPHIMURIUM, Strain/Indicator: TA1535, Metabolic Activation: HAMSTER, LIVER, S-9, AROCLOR 1254, Method: STANDARD PLATE); “inactive; negative” (Test System: AMES SALMONELLA TYPHIMURIUM, Strain/Indicator: TA1535, Metabolic Activation: NONE, Method: STANDARD PLATE); “inactive; negative” (Test System: AMES SALMONELLA TYPHIMURIUM, Strain/Indicator: TA1535, Metabolic Activation: RAT, LIVER, S-9, AROCLOR 1254, Method: STANDARD PLATE); “inactive; negative” (Test System: AMES SALMONELLA TYPHIMURIUM, Strain/Indicator: TA1537, Metabolic Activation: HAMSTER, LIVER, S-9, AROCLOR 1254, Method: STANDARD PLATE); “inactive; negative” (Test System: AMES SALMONELLA TYPHIMURIUM, Strain/Indicator: TA1537, Metabolic Activation: NONE, Method: STANDARD PLATE); “inactive; negative” (Test System: AMES SALMONELLA TYPHIMURIUM, Strain/Indicator: TA1537, Metabolic Activation: RAT, LIVER, S-9, AROCLOR 1254, Method: STANDARD PLATE). For the same compound, the mutagenic call runs as follows: (Test System: AMES SALMONELLA TYPHIMURIUM, Strain/Indicator: TA1538, Metabolic Activation: HAMSTER, LIVER, S-9, AROCLOR 1254, Method: STANDARD PLATE) “inactive; negative”; (Test System: AMES SALMONELLA TYPHIMURIUM, Strain/Indicator: TA1538, Metabolic Activation: NONE, Method: STANDARD PLATE) “inactive; negative”; (Test System: AMES SALMONELLA TYPHIMURIUM, Strain/Indicator: TA1538, Metabolic Activation: RAT, LIVER, S-9, AROCLOR 1254, Method: STANDARD PLATE) “inactive; negative”; (Test System: Mouse lymphoma, Strain/Indicator: L5178Y (tk+/tk-), Metabolic Activation: None, Method: Suspension/plate) “inactive; negative”; (Test System: Mouse lymphoma, Strain/Indicator: L5178Y (tk+/tk-), Metabolic Activation: Rat, liver, S-9, Aroclor 1254, Method: Suspension/plate) “active; positive”.
`O=C(CCCCl)N=c1sn(C(=O)CCCCl)c2ccc([N+](=O)[O-])cc12`: the mutagenic call (Test System: AMES SALMONELLA TYPHIMURIUM, Strain/Indicator: TA100, Metabolic Activation: S-9, Method: STANDARD PLATE) was “active; positive”.
Take `CCO`: the mutagenic call was “inactive; negative” (Test System: AMES SALMONELLA TYPHIMURIUM, Strain/Indicator: TA97, Metabolic Activation: HAMSTER, LIVER, S-9, AROCLOR 1254 (10%), Method: PREINCUBATION); “inactive; negative” (Test System: AMES SALMONELLA TYPHIMURIUM, Strain/Indicator: TA97, Metabolic Activation: HAMSTER, LIVER, S-9, AROCLOR 1254 (30%), Method: PREINCUBATION); “inactive; negative” (Test System: AMES SALMONELLA TYPHIMURIUM, Strain/Indicator: TA97, Metabolic Activation: NONE, Method: PREINCUBATION); “inactive; negative” (Test System: AMES SALMONELLA TYPHIMURIUM, Strain/Indicator: TA97, Metabolic Activation: RAT, LIVER, S-9, AROCLOR 1254 (10%), Method: PREINCUBATION); “inactive; negative” (Test System: AMES SALMONELLA TYPHIMURIUM, Strain/Indicator: TA97, Metabolic Activation: RAT, LIVER, S-9, AROCLOR 1254 (30%), Method: PREINCUBATION); “inactive; negative” (Test System: AMES SALMONELLA TYPHIMURIUM, Strain/Indicator: TA98, Metabolic Activation: HAMSTER, LIVER, S-9, AROCLOR 1254 (10 OR 30%), Method: PREINCUBATION). For the same compound, the mutagenic call is, setting by setting: (Test System: AMES SALMONELLA TYPHIMURIUM, Strain/Indicator: TA98, Metabolic Activation: NONE, Method: PREINCUBATION) “inactive; negative”; (Test System: AMES SALMONELLA TYPHIMURIUM, Strain/Indicator: TA98, Metabolic Activation: RAT, LIVER, S-9, AROCLOR 1254 (10 OR 30%), Method: PREINCUBATION) “inactive; negative”; (Test System: AMES SALMONELLA TYPHIMURIUM, Strain/Indicator: TA100, Metabolic Activation: HAMSTER, LIVER, S-9, AROCLOR 1254 (10 OR 30%), Method: PREINCUBATION) “inactive; negative”; (Test System: AMES SALMONELLA TYPHIMURIUM, Strain/Indicator: TA100, Metabolic Activation: NONE, Method: PREINCUBATION) “inactive; negative”; (Test System: AMES SALMONELLA TYPHIMURIUM, Strain/Indicator: TA100, Metabolic Activation: RAT, LIVER, S-9, AROCLOR 1254 (10 OR 30%), Method: PREINCUBATION) “inactive; negative”; (Test System: AMES SALMONELLA TYPHIMURIUM, Strain/Indicator: TA104, Metabolic Activation: HAMSTER, LIVER, S-9, AROCLOR 1254 (10 OR 30%), Method: PREINCUBATION) “inactive; negative”. For the same compound, the mutagenic call (Test System: AMES SALMONELLA TYPHIMURIUM, Strain/Indicator: TA104, Metabolic Activation: NONE, Method: PREINCUBATION) was “inactive; negative”; the mutagenic call (Test System: AMES SALMONELLA TYPHIMURIUM, Strain/Indicator: TA104, Metabolic Activation: RAT, LIVER, S-9, AROCLOR 1254 (10 OR 30%), Method: PREINCUBATION) was “inactive; negative”; the mutagenic call (Test System: AMES SALMONELLA TYPHIMURIUM, Strain/Indicator: TA1535, Metabolic Activation: HAMSTER, LIVER, S-9, AROCLOR 1254 (10 OR 30%), Method: PREINCUBATION) is “inactive; negative”; the mutagenic call (Test System: AMES SALMONELLA TYPHIMURIUM, Strain/Indicator: TA1535, Metabolic Activation: NONE, Method: PREINCUBATION) was “inactive; negative”; the mutagenic call (Test System: AMES SALMONELLA TYPHIMURIUM, Strain/Indicator: TA1535, Metabolic Activation: RAT, LIVER, S-9, AROCLOR 1254 (10 OR 30%), Method: PREINCUBATION) is “inactive; negative”; the mutagenic call under setting [1] is “inactive; negative”. The mutagenic call under setting [2] is “inactive; negative”.
As to `NCCc1ccc(O)cc1`, the mutagenic call under setting [1] is “active; positive” and the mutagenic call under setting [2] is “active; positive”.
Regarding `CCN(CC)CCCNC(=O)C(=O)N/N=C/c1ccc([N+](=O)[O-])o1`, the mutagenic call (Test System: E. COLI, Strain/Indicator: WP2 UVRA, Metabolic Activation: NONE, Method: STANDARD PLATE) was “active; positive”.
